Measured values reported in publication PMC10252048, “Correction: Gubič et al. Design of New Potent and Selective Thiophene-Based KV1.3 Inhibitors and Their Potential for Anticancer Activity. Cancers 2022, 14, 2595” (Cancers, 2023).

What was measured:
Assay in all cases: selectivity, HiClamp system on oocytes
Type in all cases: cell-based
Conditions in all cases: 10 µM
KV10.1 = target: T1, KV10.1 (Homo sapiens, UniProt O95259)
T1 construct: expressed in transfected cells; host or cells: Xenopus laevis oocytes
T1 sequence (O95259 1-989): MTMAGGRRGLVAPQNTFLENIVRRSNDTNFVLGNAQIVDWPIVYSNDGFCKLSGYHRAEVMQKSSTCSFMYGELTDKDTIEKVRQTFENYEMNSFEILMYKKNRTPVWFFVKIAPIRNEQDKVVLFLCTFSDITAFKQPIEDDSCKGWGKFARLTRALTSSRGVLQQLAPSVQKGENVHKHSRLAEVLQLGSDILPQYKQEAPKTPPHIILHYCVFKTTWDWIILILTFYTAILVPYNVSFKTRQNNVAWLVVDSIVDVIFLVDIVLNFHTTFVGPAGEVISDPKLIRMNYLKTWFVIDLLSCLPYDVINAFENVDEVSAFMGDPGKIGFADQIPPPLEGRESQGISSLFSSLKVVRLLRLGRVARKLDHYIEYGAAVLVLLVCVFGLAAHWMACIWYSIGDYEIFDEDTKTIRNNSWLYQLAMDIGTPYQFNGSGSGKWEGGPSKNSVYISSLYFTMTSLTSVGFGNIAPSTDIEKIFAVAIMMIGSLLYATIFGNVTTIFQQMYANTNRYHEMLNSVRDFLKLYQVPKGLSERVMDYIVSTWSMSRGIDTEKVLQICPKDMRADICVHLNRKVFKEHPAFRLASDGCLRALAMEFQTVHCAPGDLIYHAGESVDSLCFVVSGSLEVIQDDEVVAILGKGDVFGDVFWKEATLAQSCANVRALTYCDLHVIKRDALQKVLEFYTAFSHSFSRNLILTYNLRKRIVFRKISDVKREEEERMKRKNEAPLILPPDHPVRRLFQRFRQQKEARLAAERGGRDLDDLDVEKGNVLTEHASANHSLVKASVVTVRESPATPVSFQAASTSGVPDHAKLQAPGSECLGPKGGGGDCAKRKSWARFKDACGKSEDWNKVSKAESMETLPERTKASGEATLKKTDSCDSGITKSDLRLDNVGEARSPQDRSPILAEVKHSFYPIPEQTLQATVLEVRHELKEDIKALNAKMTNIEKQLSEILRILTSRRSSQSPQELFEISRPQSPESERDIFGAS

KV1.2 = target: T2, KV1.2 (Homo sapiens, UniProt P16389)
T2 construct: expressed in transfected cells; host or cells: Xenopus laevis oocytes
T2 sequence (P16389 whole entry): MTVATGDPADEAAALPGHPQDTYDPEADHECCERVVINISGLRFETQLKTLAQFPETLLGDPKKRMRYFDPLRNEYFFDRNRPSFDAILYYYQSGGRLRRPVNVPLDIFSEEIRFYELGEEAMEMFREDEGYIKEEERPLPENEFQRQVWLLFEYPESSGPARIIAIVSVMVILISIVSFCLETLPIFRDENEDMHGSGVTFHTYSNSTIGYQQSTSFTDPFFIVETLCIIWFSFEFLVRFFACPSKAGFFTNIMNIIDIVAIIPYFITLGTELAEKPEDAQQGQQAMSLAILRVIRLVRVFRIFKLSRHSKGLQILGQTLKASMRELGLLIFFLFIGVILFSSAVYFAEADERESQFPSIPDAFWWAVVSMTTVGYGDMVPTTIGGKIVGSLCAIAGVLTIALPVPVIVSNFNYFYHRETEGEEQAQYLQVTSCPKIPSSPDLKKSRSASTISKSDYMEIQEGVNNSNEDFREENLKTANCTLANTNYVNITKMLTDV

KV2.1 = target: T3, KV2.1 (Homo sapiens, UniProt Q14721)
T3 construct: expressed in transfected cells; host or cells: Xenopus laevis oocytes
T3 sequence (Q14721 1-858): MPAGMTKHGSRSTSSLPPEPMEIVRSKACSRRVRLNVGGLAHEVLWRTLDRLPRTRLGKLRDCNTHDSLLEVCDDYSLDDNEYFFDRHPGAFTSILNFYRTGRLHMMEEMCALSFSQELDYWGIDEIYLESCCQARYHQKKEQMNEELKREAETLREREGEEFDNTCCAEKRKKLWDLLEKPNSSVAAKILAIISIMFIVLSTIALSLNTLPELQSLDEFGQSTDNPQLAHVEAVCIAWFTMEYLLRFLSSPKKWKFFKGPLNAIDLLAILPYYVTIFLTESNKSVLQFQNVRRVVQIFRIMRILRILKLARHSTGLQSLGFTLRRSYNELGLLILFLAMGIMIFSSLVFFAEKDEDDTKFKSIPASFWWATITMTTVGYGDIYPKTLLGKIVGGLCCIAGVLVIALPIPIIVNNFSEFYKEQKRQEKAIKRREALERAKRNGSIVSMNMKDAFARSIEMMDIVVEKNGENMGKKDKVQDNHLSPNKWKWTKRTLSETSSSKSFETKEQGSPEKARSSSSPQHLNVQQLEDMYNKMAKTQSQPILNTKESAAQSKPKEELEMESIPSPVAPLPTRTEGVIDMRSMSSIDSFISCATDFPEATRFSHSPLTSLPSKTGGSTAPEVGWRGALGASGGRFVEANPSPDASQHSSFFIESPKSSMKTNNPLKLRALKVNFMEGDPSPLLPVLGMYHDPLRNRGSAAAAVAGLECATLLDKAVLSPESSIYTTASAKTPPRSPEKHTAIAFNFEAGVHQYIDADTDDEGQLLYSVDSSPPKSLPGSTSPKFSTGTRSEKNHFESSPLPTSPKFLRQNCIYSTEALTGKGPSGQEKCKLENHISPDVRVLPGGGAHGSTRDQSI

KV1.6 = target: T4, KV1.6 (Homo sapiens, UniProt P17658)
T4 construct: expressed in transfected cells; host or cells: Xenopus laevis oocytes
T4 sequence (P17658 whole entry): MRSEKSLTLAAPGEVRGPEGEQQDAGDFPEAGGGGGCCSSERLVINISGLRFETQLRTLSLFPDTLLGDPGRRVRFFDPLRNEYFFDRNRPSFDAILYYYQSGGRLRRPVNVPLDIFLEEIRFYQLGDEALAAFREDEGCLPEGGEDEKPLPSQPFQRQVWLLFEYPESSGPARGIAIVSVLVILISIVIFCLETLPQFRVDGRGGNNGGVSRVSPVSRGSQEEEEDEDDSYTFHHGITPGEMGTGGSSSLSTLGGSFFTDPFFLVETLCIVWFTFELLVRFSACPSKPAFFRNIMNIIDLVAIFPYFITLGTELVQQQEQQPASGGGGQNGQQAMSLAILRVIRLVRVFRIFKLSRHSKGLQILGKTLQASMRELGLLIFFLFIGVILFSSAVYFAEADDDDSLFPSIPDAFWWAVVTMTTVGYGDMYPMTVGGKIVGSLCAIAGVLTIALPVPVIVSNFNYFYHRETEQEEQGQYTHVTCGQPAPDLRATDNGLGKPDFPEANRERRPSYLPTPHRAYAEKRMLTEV

KV4.2 = target: T5, KV4.2 (Homo sapiens, UniProt Q9NZV8)
T5 construct: expressed in transfected cells; host or cells: Xenopus laevis oocytes
T5 sequence (Q9NZV8 1-630): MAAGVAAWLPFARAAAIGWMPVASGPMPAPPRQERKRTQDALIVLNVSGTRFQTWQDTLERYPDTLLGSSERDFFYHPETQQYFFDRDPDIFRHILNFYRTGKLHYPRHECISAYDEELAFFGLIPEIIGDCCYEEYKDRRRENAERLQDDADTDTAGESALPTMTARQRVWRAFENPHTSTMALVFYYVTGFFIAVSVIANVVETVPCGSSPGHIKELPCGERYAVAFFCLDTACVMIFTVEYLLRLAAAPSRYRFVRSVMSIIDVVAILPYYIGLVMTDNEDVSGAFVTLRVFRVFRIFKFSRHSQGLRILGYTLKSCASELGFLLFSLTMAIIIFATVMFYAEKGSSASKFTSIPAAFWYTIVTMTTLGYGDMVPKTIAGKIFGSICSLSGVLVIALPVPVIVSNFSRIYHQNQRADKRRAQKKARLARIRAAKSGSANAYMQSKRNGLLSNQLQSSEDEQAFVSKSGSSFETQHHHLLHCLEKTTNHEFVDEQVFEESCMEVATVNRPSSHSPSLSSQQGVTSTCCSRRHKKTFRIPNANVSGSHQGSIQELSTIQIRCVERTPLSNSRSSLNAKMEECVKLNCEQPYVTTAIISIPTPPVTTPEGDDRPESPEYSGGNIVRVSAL

KV1.4 = target: T6, KV1.4 (Homo sapiens, UniProt P22459)
T6 construct: expressed in transfected cells; host or cells: Xenopus laevis oocytes
T6 sequence (P22459 whole entry): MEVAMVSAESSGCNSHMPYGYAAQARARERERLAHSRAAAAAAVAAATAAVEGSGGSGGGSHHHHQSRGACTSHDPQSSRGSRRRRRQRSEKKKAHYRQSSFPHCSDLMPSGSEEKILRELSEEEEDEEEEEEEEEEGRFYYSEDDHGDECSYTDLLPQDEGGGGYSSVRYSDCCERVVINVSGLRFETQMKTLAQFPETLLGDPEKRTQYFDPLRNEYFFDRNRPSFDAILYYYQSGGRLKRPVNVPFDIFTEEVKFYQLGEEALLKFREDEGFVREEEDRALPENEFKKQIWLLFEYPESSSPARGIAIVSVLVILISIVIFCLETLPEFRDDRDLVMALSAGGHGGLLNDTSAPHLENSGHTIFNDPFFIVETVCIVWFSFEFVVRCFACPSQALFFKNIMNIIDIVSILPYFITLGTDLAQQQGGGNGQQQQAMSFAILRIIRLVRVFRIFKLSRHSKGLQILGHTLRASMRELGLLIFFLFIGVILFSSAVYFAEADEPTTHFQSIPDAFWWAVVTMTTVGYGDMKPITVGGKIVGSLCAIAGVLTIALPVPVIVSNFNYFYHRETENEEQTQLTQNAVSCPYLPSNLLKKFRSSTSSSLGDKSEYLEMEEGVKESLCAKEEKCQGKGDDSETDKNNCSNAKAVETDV

KV1.5 = target: T7, KV1.5 (Homo sapiens, UniProt P22460)
T7 construct: expressed in transfected cells; host or cells: Xenopus laevis oocytes
T7 sequence (P22460 whole entry): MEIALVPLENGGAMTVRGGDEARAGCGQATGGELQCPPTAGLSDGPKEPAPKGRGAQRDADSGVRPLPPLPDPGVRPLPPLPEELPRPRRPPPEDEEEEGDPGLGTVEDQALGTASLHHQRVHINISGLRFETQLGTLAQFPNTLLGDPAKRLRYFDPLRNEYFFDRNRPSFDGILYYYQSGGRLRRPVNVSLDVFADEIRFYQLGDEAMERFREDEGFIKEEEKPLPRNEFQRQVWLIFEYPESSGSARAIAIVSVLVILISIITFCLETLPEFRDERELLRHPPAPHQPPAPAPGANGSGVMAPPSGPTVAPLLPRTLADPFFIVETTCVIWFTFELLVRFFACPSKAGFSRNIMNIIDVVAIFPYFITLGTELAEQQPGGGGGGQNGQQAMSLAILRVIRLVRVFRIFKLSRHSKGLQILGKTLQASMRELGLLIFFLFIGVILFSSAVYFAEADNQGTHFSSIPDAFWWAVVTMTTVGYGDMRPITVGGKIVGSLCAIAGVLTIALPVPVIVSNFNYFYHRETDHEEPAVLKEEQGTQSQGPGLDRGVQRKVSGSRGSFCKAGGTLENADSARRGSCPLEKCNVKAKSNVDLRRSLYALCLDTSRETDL

KV1.1 = target: T8, KV1.1 (Homo sapiens, UniProt Q09470)
T8 construct: expressed in transfected cells; host or cells: Xenopus laevis oocytes
T8 sequence (Q09470 whole entry): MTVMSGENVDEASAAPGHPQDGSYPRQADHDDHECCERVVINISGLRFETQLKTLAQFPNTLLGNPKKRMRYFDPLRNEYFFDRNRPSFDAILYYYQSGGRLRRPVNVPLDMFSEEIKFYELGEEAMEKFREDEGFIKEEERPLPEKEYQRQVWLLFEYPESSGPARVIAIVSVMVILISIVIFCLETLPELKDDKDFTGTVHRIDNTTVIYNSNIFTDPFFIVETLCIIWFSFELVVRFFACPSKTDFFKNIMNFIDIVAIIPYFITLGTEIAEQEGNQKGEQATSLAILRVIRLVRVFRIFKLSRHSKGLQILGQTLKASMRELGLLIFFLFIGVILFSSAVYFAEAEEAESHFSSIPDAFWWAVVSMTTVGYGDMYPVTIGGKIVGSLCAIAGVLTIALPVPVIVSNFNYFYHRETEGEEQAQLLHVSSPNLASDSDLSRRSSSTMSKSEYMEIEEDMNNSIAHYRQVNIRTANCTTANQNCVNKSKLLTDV

O=c1ccc2c(OCCCCOc3ccccc3)c3ccoc3cc2o1 [PAP-1 (1), PAP-1]
no significant effects: effect on KV10.1 (KV10.1) | effect on KV1.2 (KV1.2) | effect on KV2.1 (KV2.1) | effect on KV1.6 (KV1.6) | effect on KV4.2 (KV4.2) | effect on KV1.4 (KV1.4) | effect on KV1.5 (KV1.5) | effect on KV1.1 (KV1.1)
